Results taken from patent publication US20230372382A1, “USE OF ADENOSINE DIPHOSPHATE RIBOSE FOR ADJUVANT THERAPY WITH RADIATION AND/OR ANTI-CANCER TREATMENT” (PearlsInMires Co., Ltd., priority 2021, published 2023).

Columns and labels:
[1] = test system: Brain cancer (U-87MG) cells; experiment: Xenograft model, combination with anti-cancer drug, tumor volume; assay type: in vivo, BALB/c nude mice; conditions: U-87MG xenograft, Avastin 25 mg/kg intraperitoneal twice a week alone
Description: (§1) Brain (U-87MG), lung (H1975), pancreatic (AsPC-1), or liver (Hep G2) cells (1×10^7 cells) were inoculated into 5-week-old BALB/c nude mice on the back flank, respectively. Then, when tumors were grown to a volume of approximately 150 mm^3, the mice were divided into the control group (control), an anti-cancer drug alone treatment group, and a combination treatment group. […] The tumor size was measured every 6 days using a digital caliper, and the results of changes in tumor volume were compared by the group.
Brain cancer (U-87MG) cells (1×10^7) were inoculated into 5-week-old BALB/c nude mice on the back flank, and the mice were divided into three groups: the control group (Control), single intraperitoneal administration of 25 mg/kg of Avastin (ingredient name: bevacizumab), and combination administration of Avastin+10 mg/kg of ADP-ribose. When the tumors were grown to a volume of approximately 150 mm^3, Avastin was administered intraperitoneally twice a week, and ADP-ribose at 10 mg/kg was injected subcutaneously 3 times a week. The tumor size was measured using a digital caliper, and the results of changes in tumor volume were compared by the group.

[2] = test system: Liver cancer (Hep G2) cells; experiment: as above; assay type: in vivo, BALB/c nude mice; conditions: sorafenib 10 mg/kg oral 5 times a week alone
Description: as §1
Liver cancer (Hep G2) cells (1×10^7) were inoculated into 5-week-old BALB/c nude mice on the back flank, and the mice were divided into three groups: the control group (Control), single oral administration of 10 mg/kg of sorafenib, and combination administration of sorafenib+10 mg/kg of ADP-ribose. When the tumors were grown to a volume of approximately 150 mm^3, sorafenib was administered orally 5 times a week, and ADP-ribose at 10 mg/kg was injected subcutaneously 3 times a week. The tumor size was measured using a digital caliper, and the results of changes in tumor volume were compared by the group.

[3] = test system: Liver cancer (Hep G2) cells; experiment: Cell death by combination treatment with anti-cancer drug (MTT); conditions: Homo sapiens, HepG2, 24 h, read-out: cancer cells survived (cell viability)
[4] = test system: Pancreatic cancer (AsPC-1) cells; experiment: as above; assay type: cell-based; conditions: Homo sapiens, ASPC1, 24 h; read-out: cancer cells survived (cell viability)
[5] = test system: Colon cancer (HCT116) cells; experiment: as above; assay type: cell-based; conditions: Homo sapiens, HCT-116; HCT116, 5-FU 10 μM alone, 24 hours; read-out: cancer cells survived (cell viability)
[6] = test system: Lung cancer (H1975) cells; experiment: as above; assay type: cell-based; conditions: Homo sapiens, NCI-H1975; H1975, osimertinib 1 nM alone, 24 hours; read-out: cancer cells survived (cell viability)
[7] = test system: Lung cancer (H1975) cells; experiment: Xenograft model, combination with anti-cancer drug, tumor volume; assay type: in vivo, BALB/c nude mice; conditions: osimertinib 1 mg/kg oral twice a week alone
Description: as §1
Lung cancer (H1975) cells (1×10^7) were inoculated into 5-week-old BALB/c nude mice on the back flank, and the mice were divided into three groups: the control group (Control), single oral administration of 1 mg/kg of osimertinib, and combination administration of osimertinib+10 mg/kg of ADP-ribose. When the tumors were grown to a volume of approximately 150 mm^3, osimertinib was administered orally twice a week, and ADP-ribose at 10 mg/kg was injected subcutaneously 3 times a week. The tumor size was measured using a digital caliper, and the results of changes in tumor volume were compared by the group.

In the case of “bevacizumab: anti-VEGF monoclonal antibody; Avastin (ingredient name: bevacizumab) [reference compound]”, the “final tumor volume lower than that of the control group” value (shortened to “final tumor volume lower than that”) [1] is reported as “about 37%” and the final tumor volume ([1]; control about 2527.1) is reported as “about 1598.9 mm^3”.
In the case of `CNC(=O)c1cc(Oc2ccc(NC(=O)Nc3ccc(Cl)c(C(F)(F)F)c3)cc2)ccn1` [sorafenib, reference compound], the “final tumor volume lower than that” value [2] is reported as “about 20%”, the final tumor volume ([2]; control about 2322.4) is reported as “about 1849.8 mm^3” and the viability at 1 µM [3] is reported as roughly 49%.
`Nc1ccn([C@@H]2O[C@H](CO)[C@@H](O)C2(F)F)c(=O)n1` [gemcitabine, reference compound] gave a viability at 1 µM [4] of roughly 54%.
In the case of `O=c1[nH]cc(F)c(=O)[nH]1` [5-FU, 5-fluorouracil, reference compound], the viability at 10 µM [5] is reported as roughly 51%.
For `C=CC(=O)Nc1cc(Nc2nccc(-c3cn(C)c4ccccc34)n2)c(OC)cc1N(C)CCN(C)C` [osimertinib, reference compound], the viability at 0.001 µM [6] was roughly 50%, the “final tumor volume lower than that” value [7] was “about 17%” and the final tumor volume ([7]; control about 2265.5) was “about 1881.9 mm^3”.
